The nature of the test: Fear-potentiated startle after ICV TUF1 peptide infusion. Type of test: in vivo, rat. The note with it: adult male rats. As to the method:
a) Intra-cerebroventricular (ICV) Cannulation Male Sprague-Dawley rats weighing 250-400 grams were anesthetized with ketamine (100 mg/kg) and xylazine (7 mg/kg) and placed in a stereotaxic device (David Kopf Instruments Corp., Tunjunga, Calif.) using atraumatic ear bars. An incision of the skin overlying the skull was made and anchor screws were inserted into the skull. Burr holes were drilled to allow the guide cannula to pass into the brain. The guide cannula (22-gauge, C313G; Plastics One, Roanoke, Va.) was placed at 0 mm posterior, 1.2 mm lateral and 3.5 mm ventral to bregma. The cannula was affixed using epoxy glue (Loctite 444; McMaster-Carr, Chicago, Ill.) followed by dental acrylic (Hygienic perm reline & repair resin, Type II, Class I; Henry Schein, Inc., Melville, N.Y.). The cannula was sealed and kept open by insertion of a ‘dummy’ cannula. […]
For fear potentiated startle, shock sensitization, and prepulse inhibition testing, animals were trained and tested in four identical 7.5 cm×9 cm×17 cm stabilimeter devices. […] Shock intensity was measured with a 1-kΩ resistor across a differential channel of an oscilloscope in series with a 100-kΩ resistor connected between two floor bars in each cage. Current was defined as the RMS voltage across the resistor and calculated in mA as 0.707×0.5 ×peak-to-peak voltage. […]

No end group written: not given here.

In the case of AYKSYVRALPLL [TUF1[43-54]], the shock reactivity result (1.0 μg or 10 μg ICV) is recorded as “No effect”. The fear potentiated startle result (1.0 μg or 10 μg via lateral ventricle cannulae, vs control subjects) is reported as “reduced fear potentiated startle”.

Values taken from patent US20120269815A1, “NEUROTROPHINS AND USES THEREOF” (Regents of the University of Minnesota, priority 2008, published 2012).
